Series [1] relates to A375res cells.
Description: (§1) A vemurafenib-resistant cell line is generated by chronic treatment of the human melanoma cell line A375 (ATCC) harboring the B-Raf V600E mutation with increasing concentrations PLX4720.
Series [2] relates to A375res cells. In words: Proliferation assay in vemurafenib-resistant A375res melanoma cells. The following applies: Homo sapiens, 72 h, read-out: absolute IC50 values.
Description: as §1
In series [3] the test system is phospho-ERK in HCT-116 cells. In words: HCT-116 cell pERK assay (AlphaScreen SureFire). It is filed as cell-based. To be noted: Homo sapiens; HCT-116 cells, B-Raf wild type, K-Ras mutation; 4 hours; read-out: IC50 reduction of phospho-ERK signal. The procedure: Examples of Formula I are tested against HCT-116 cells harboring wild type B-Raf and K-Ras mutation. The phospho-ERK activities are evaluated as described below.
HCT-116 cells (catalog #CCL-247) are obtained from the American Type Culture Collection (ATCC, Manassas, Va.). Briefly, cells are grown in McCoy's 5A supplemented with 10% characterized fetal bovine serum (Invitrogen, Carlsbad, Calif.), and 1% Penicillin/Streptomycin/L-Glutamine at 37 degrees Celsius, 5% CO2, and 95% humidity. Cells are allowed to expand until reaching 75-90% confluency at which point they are subcultured or harvested for assay use. HCT-116 cells suspended in complete media are added to 384-well tissue culture treated plates (3×10^5 cells/mL; 7,500 cells per well). The cells are incubated overnight at 37 degrees Celsius, 5% CO2, and 95% humidity. Next, test compound or DMSO diluted in complete media is added to the wells (0.25% final DMSO concentration). The plates are then incubated for 4 hours at 37 degrees Celsius, 5% CO2, and 95% humidity. Following compound incubation, the cells are lysed at 4° C. for 20 minutes with shaking Cell lysates are centrifuged and the supernatant is transferred to a new plate. An aliquot of each lysate is transferred to a white 384-well assay plate. Using the AlphaScreen SureFire pERK kit (Perkin-Elmer, Waltham, Mass.), an acceptor bead mixture is added to each well and incubated for 2 h at room temperature in the dark. A donor bead mixture is then added to each well and incubated for 2 h at room temperature in the dark. Plates are read using a Synergy2 plate reader (Biotek, Winooski, Vt.) in Plate Mode with Timing Control. Read: (F)1: excitation: 680/30 nm, emission: Plug. 2: Excitation: Plug, emission: 570/100 nm. Top mirror 635 nm. Data is analyzed using Prism software (Graphpad, San Diego, Calif.) to calculate IC50 values and Excel software (Microsoft, Redmond, Wash.) to calculate stimulation compared to control.
A general note: Bead proximity is the source of the signal in Alpha formats.

The subject of series [4] is phospho-ERK in A375 (B-Raf V600E) xenograft. In words: A375 mouse xenograft pharmacodynamic assay (tumor pERK by ELISA). To be noted: A-375, 20 mg/kg oral, 2 h post dose, vs vehicle, read-out: Measured pERK inhibition 2 h post dose. It is filed as in vivo, mice. The procedure: To evaluate the in vivo pharmacodynamic (PD) effects of compounds of Formula I, an A375 (B-Raf V600E) xenograft model is employed. Briefly, 10×10^6 A375 tumor cells (ATCC) are prepared in a 1:1 matrigel mix (0.2 mL total volume) and implanted by subcutaneous injection in hind leg of nude female mice. A total of 4 mice each for each dosing group are employed. Treatment is initiated with oral administration (gavage) of test compound or vehicle (20% captisol, 25 mM phosphate, pH2.0) in 0.2 mL volume when average tumor size reaches approximately 300 mg. After a fixed time interval, the tumors are harvested and the phospho-ERK levels are measured by ELISA (Enzyme-linked immunosorbent assay). Treated groups are compared to the vehicle control group to calculate % inhibition.
Background: ELISA stands for enzyme-linked immunosorbent assay.

pIC50: −log10 of the molar value. Counter-ions that a name gives are not always drawn.

As to `CNc1cc2nc(C)c(-c3cc(NC(=O)NCC4CC(C)(C)C4)c(F)cc3F)cc2cn1` [Example 13, 1-(2,4-difluoro-5-(2-methyl-7-(methylamino)-1,6-naphthyridin-3-yl)phenyl)-3-((3,3-dimethylcyclobutyl)methyl)urea hydrochloride], in the series with A375res cells [1], the “IC50 shift A375 to A375res” value is listed as 0.5-4.9 fold. Further, the results for the negative-log IC50 (pIC50) (with A375res cells [2]; in series [3]) were 6.30 to 8.05 and 7.02 to 8.70, respectively.

On to `CNc1cc2nc(C)c(-c3cc(NC(=O)NC4CCOC(C)(C)C4)c(F)cc3C)cc2cn1` (centres unmarked) [Example 20, 1-(2,2-dimethyltetrahydro-2H-pyran-4-yl)-3-(2-fluoro-4-methyl-5-(2-methyl-7-(methylamino)-1,6-naphthyridin-3-yl)phenyl)urea hydrochloride], for which the “IC50 shift A375 to A375res” value in the series with A375res cells [1] was 0.5-4.9 fold. The figures for the pIC50 (in the series with A375res cells [2]; in series [3]) were 6.30 to 8.05 and 7.02 to 8.70, respectively.

Regarding `CNc1cc2nc(C)c(-c3cc(NC(=O)NCCC4(C(F)(F)F)CC4)c(F)cc3C)cc2cn1` [Example 23, 1-(2-fluoro-4-methyl-5-(2-methyl-7-(methylamino)-1,6-naphthyridin-3-yl)phenyl)-3-(2-(1-(trifluoromethyl)cyclopropyl)ethyl)urea hydrochloride], the “IC50 shift A375 to A375res” value in the series with A375res cells [1] was 0.5-4.9 fold. For the same molecule, the pIC50 – broadly, the negative decadic logarithm of the IC50, by convention in mol/L – with A375res cells [2] was 6.30 to 8.05; in series [3], 7.02 to 8.70.

For the molecule `CC(=O)Nc1cc2nc(C)c(-c3cc(NC(=O)NCCC(C)(C)C#N)c(F)cc3F)cc2cn1` [Example 43, N-(3-(5-(3-(3-cyano-3-methylbutyl)ureido)-2,4-difluorophenyl)-2-methyl-1,6-naphthyridin-7-yl)acetamide], in series [4], the inhibition in vivo at 20 mg/kg was found to be 55%.

On to `CNc1cc2nc(C)c(-c3cc(NC(=O)NCCC(C)C)c(F)cc3C)cc2cn1` [Example 45, 1-(2-fluoro-4-methyl-5-(2-methyl-7-(methylamino)-1,6-naphthyridin-3-yl)phenyl)-3-isopentylurea], for which the “IC50 shift A375 to A375res” value with A375res cells [1] is on record as 0.5-4.9 fold. The pIC50 is 6.30 to 8.05 in the series on A375res cells [2] and 7.02 to 8.70 in series [3].

For the molecule `CNc1cc2nc(C)c(-c3cc(NC(=O)NCC(O)C(C)(C)C)c(F)cc3C)cc2cn1` (centres unmarked) [Example 55, 1-(2-fluoro-4-methyl-5-(2-methyl-7-(methylamino)-1,6-naphthyridin-3-yl)phenyl)-3-(2-hydroxy-3,3-dimethylbutyl)urea], the “IC50 shift A375 to A375res” value in the series with A375res cells [1] is recorded as 0.5-4.9 fold. For the same molecule, the negative logarithm of the IC50 (pIC50) is 6.30 to 8.05 in the series with A375res cells [2] and 7.02 to 8.70 in series [3].

On to `CNc1cc2nc(C)c(-c3cc(NC(=O)NC[C@@H](O)C(C)C)c(F)cc3C)cc2cn1` [Example 75, (S)-1-(2-fluoro-4-methyl-5-(2-methyl-7-(methylamino)-1,6-naphthyridin-3-yl)phenyl)-3-(2-hydroxy-3-methylbutyl)urea], for which the inhibition in vivo at 20 mg/kg in series [4] worked out at 89%.

As to `CNc1cc2nc(C)c(-c3cc(NC(=O)NC4CC(C)(C)C4)c(F)cc3F)cc2cn1` [Example 78, 1-(2,4-difluoro-5-(2-methyl-7-(methylamino)-1,6-naphthyridin-3-yl)phenyl)-3-(3,3-dimethylcyclobutyl)urea hydrochloride], the inhibition in vivo at 20 mg/kg in series [4] amounted to 68%.

Take `Cc1cc(F)c(NC(=O)NCCC2(C(F)(F)F)CC2)cc1-c1cc2cnc(N)cc2nc1C` [Example 83, 1-(5-(7-amino-2-methyl-1,6-naphthyridin-3-yl)-2-fluoro-4-methylphenyl)-3-(2-(1-(trifluoromethyl)cyclopropyl)ethyl)urea hydrochloride]: the “IC50 shift A375 to A375res” value in the series on A375res cells [1] was 0.5-4.9 fold. Also, the negative-log IC50 (pIC50) in the series with A375res cells [2] was 6.30 to 8.05; in series [3], 7.02 to 8.70.

Consider `CNc1cc2nc(C)c(-c3cc(NC(=O)NCCC4CC4)c(F)cc3C)cc2cn1` [Example 84, 1-(2-cyclopropylethyl)-3-(2-fluoro-4-methyl-5-(2-methyl-7-(methylamino)-1,6-naphthyridin-3-yl)phenyl)urea hydrochloride], for which the “IC50 shift A375 to A375res” value in the series on A375res cells [1] is reported as 0.5-4.9 fold. For the same molecule, the figures for the pIC50 (in the series on A375res cells [2]; in series [3]) were 6.30 to 8.05 and 7.02 to 8.70, respectively.

`CNc1cc2nc(C)c(-c3cc(NC(=O)NC4CCC(F)(F)CC4)c(F)cc3F)cc2cn1` [Example 88, 1-(2,4-difluoro-5-(2-methyl-7-(methylamino)-1,6-naphthyridin-3-yl)phenyl)-3-(4,4-difluorocyclohexyl)urea hydrochloride]: the “IC50 shift A375 to A375res” value in the series on A375res cells [1] was 0.5-4.9 fold. Besides, the pIC50 was 6.30 to 8.05 in the series on A375res cells [2] and 7.02 to 8.70 in series [3].

`CNc1cc2ncc(-c3cc(NC(=O)NCCC(C)(C)F)c(F)cc3C)cc2cn1` [Example 93, 1-(3-fluoro-3-methylbutyl)-3-(2-fluoro-4-methyl-5-(7-(methylamino)-1,6-naphthyridin-3-yl)phenyl)urea]: the “IC50 shift A375 to A375res” value in the series on A375res cells [1] was 0.5-4.9 fold. The values for the negative-log IC50 (pIC50) (in the series on A375res cells [2]; in series [3]) were 6.30 to 8.05 and 7.02 to 8.70, respectively.

As to `CNc1cc2nc(C)c(-c3cc(NC(=O)NCCC4(C)CC4)c(F)cc3F)cc2cn1` [Example 94, 1-(2,4-difluoro-5-(2-methyl-7-(methylamino)-1,6-naphthyridin-3-yl)phenyl)-3-(2-(1-methylcyclopropyl)ethyl)urea hydrochloride], the “IC50 shift A375 to A375res” value in the series on A375res cells [1] is on record as 0.5-4.9 fold. The values for the pIC50 (in the series with A375res cells [2]; in series [3]) were 6.30 to 8.05 and 7.02 to 8.70, respectively.

With `CNc1cc2nc(C)c(-c3cc(NC(=O)NCCCC(C)(F)F)c(F)cc3C)cc2cn1` [Example 99, 1-(4,4-difluoropentyl)-3-(2-fluoro-4-methyl-5-(2-methyl-7-(methylamino)-1,6-naphthyridin-3-yl)phenyl)urea hydrochloride], the “IC50 shift A375 to A375res” value in the series with A375res cells [1] is 0.5-4.9 fold. The pIC50 in the series on A375res cells [2] was 6.30 to 8.05.

Turning to `CNc1cc2nc(C)c(-c3cc(NC(=O)N[C@H]4C[C@@](C)(F)C4)c(F)cc3C)cc2cn1` [Example 100, 1-(3-fluoro-trans(3-methylcyclobutyl))-3-(2-fluoro-4-methyl-5-(2-methyl-7-(methylamino)-1,6-naphthyridin-3-yl)phenyl)urea], the “IC50 shift A375 to A375res” value in the series with A375res cells [1] is recorded as 0.5-4.9 fold. Further, the negative logarithm of the IC50 (pIC50) in the series with A375res cells [2] is 6.30 to 8.05.

Regarding `CNc1cc2nc(C)c(-c3cc(NC(=O)NCCCC(C)(C)F)c(F)cc3C)cc2cn1` [Example 101, 1-(2-fluoro-4-methyl-5-(2-methyl-7-(methylamino)-1,6-naphthyridin-3-yl)phenyl)-3-(4-fluoro-4-methylpentyl)urea hydrochloride], in the series on A375res cells [1], the “IC50 shift A375 to A375res” value is on record as 0.5-4.9 fold. Also, the negative-log IC50 (pIC50) in the series with A375res cells [2] was 6.30 to 8.05.

Turning to `CC(=O)Nc1cc2nc(C)c(-c3ccc(F)c(NC(=O)NCCC(C)(C)C)c3)cc2cn1` [Example 103, N-(3-(3-(3-(3,3-dimethylbutyl)ureido)-4-fluorophenyl)-2-methyl-1,6-naphthyridin-7-yl)acetamide], the inhibition in vivo at 20 mg/kg in series [4] turned out to be 90%.

Turning to `Cc1nc2cc(NC(=O)C3CC3)ncc2cc1-c1cc(NC(=O)NCCC2CC2)c(F)cc1F` [Example 123, N-(3-(5-(3-(2-cyclopropylethyl)ureido)-2,4-difluorophenyl)-2-methyl-1,6-naphthyridin-7-yl)cyclopropanecarboxamid hydrochloride], the “IC50 shift A375 to A375res” value with A375res cells [1] is 0.5-4.9 fold. Moreover, the pIC50 in the series on A375res cells [2] was 6.30 to 8.05.

`Cc1cc(F)c(NC(=O)NCCC(C)(C)F)cc1-c1cc2cnc(NC=O)cc2nc1C` [Example 125, N-(3-(4-fluoro-5-(3-(3-fluoro-3-methylbutyl)ureido)-2-methylphenyl)-2-methyl-1,6-naphthyridin-7-yl)formamide hydrochloride]: the “IC50 shift A375 to A375res” value in the series on A375res cells [1] was 0.5-4.9 fold. The negative logarithm of the IC50 (pIC50) is 6.30 to 8.05 with A375res cells [2] and 7.02 to 8.70 in series [3].

As to `Cc1cc(F)c(NC(=O)NCCC(C)(C)C)cc1-c1cc2cnc(N)cc2nc1C` [Example 129, 1-(5-(7-amino-2-methyl-1,6-naphthyridin-3-yl)-2-fluoro-4-methylphenyl)-3-(3,3-dimethylbutyl)urea hydrochloride], the pIC50 with A375res cells [2] is 6.30 to 8.05; in series [3], 7.02 to 8.70.

The values above are taken from patent US9187474B2, “Raf inhibitor compounds” (Deciphera Pharmaceuticals, LLC, priority 2012, dated 2015).
